For one data set, the system named is Uromyces appendiculatus. The data set can be described thus: Example G: in vivo preventive test on Uromyces appendiculatus (bean rust). Conditions: bean plants; for protection: summary over doses of 500 ppm and 100 ppm; for Efficacy: table G2. The method, then: Example G: In Vivo Preventive Test on Uromyces appendiculatus (Bean Rust) […] Bean plants (“Saxa” variety), sown in starter cups on a 50/50 peat soil pozzolana substrate and grown at 24° C., are treated at the 2 leaf stage (9 cm height) by spraying with the active ingredient prepared as described above. Plants, used as controls, are treated with the mixture of acetone/tween/DMSO/water not containing the active material. After 24 hours, the plants are contaminated by spraying the leaves with an aqueous suspension of Uromyces appendiculatus spores (150 000 spores per mL). The spores are collected from infected plants and are suspended in water containing 2.5 mL/L of Tween 80 at 10%. The contaminated bean plants are incubated for 24 hours at 20° C. and at 100% relative humidity, and then for 10 days at 20° C. and at 70-80% relative humidity. Grading (% of efficacy) is carried out 11 days after the contamination, in comparison with the control plants.

In a further data set the test system is Pyrenophora teres. The data set can be described thus: Example N: in vivo preventive test on Pyrenophora teres (barley). Conditions: table N; 500 ppm; barley plants; grading 14 days after contamination. The method, then: Example N: In Vivo Preventive Test on Pyrenophora teres (Barley) […] Barley plants (“Plaisant” variety), sown in starter cups on a 50/50 peat soil pozzolana substrate and grown at 22° C., are treated at the 1 leaf stage (10 cm height) by spraying with the active ingredient prepared as described above. Plants, used as controls, are treated with the mixture of acetone/tween/DMSO/water not containing the active material. After 24 hours, the plants are contaminated by spraying the leaves with an aqueous suspension of Pyrenophora teres spores (12 000 spores per mL). The spores are collected from a 12-day-old culture. The contaminated barley plants are incubated for 48 hours at 20° C. and at 100% relative humidity, and then for 12 days at 20° C. at 70-80% relative humidity. Grading (% of efficacy) is carried out 14 days after the contamination, in comparison with the control plants.

A short description of data set [1]: log P by HPLC on reversed-phase column (EEC Directive 79/831 Annex V.A8). Format: physicochemical. Conditions: for logP: Table 1. The method, then:
In table 1, the log P values were determined in accordance with EEC Directive 79/831 Annex V.A8 by HPLC (High Performance Liquid Chromatography) on a reversed-phase column (C 18), using the method described below: Temperature: 40° C.; Mobile phases: 0.1% aqueous formic acid and acetonitrile; linear gradient from 10% acetonitrile to 90% acetonitrile. Calibration was carried out using unbranched alkan-2-ones (comprising 3 to 16 carbon atoms) with known log P values (determination of the log P values by the retention times using linear interpolation between two successive alkanones). lambda-max-values were determined using UV-spectra from 200 nm to 400 nm and the peak values of the chromatographic signals.

Setting [2] is: HPLC C18, 40° C., 0.1% aqueous formic acid and acetonitrile gradient.
The mark [3] stands for this setting: reversed-phase C18 HPLC column, Table 2 (amines IIf), HPLC C18, 40° C., 0.1% aqueous formic acid and acetonitrile gradient, read-out: logP.

Like-named read-outs stand apart in the source and are kept apart here.

Turning to `Cn1cc(C(=O)N(CC2CCc3ccccc32)C2CC2)c(C(F)F)n1` (stereo not shown) [CMP1, N-cyclopropyl-3-(difluoromethyl)-N-(2,3-dihydro-1H-inden-1-ylmethyl)-1-methyl-1H-pyrazole-4-carboxamide, reference compound], the protection result with Uromyces appendiculatus is “high (at least 80%) to no protection”. For the same compound, the Efficacy with Uromyces appendiculatus (dose 100 ppm) was found to be 0%; in the data set with Uromyces appendiculatus (dose 500 ppm), 13%.

Consider `Cc1cccc2c1CCC2CN(C(=O)c1cn(C)nc1C(F)F)C1CC1` (stereo not shown) [CMP2, N-cyclopropyl-3-(difluoromethyl)-1-methyl-N-[(4-methyl-2,3-dihydro-1H-inden-1-yl)methyl]-1H-pyrazole-4-carboxamide, reference compound], for which, in the data set on Uromyces appendiculatus, the protection entry is “high (at least 80%) to no protection”. The Efficacy is given as 0% in the data set with Uromyces appendiculatus (dose 100 ppm) and 80% with Uromyces appendiculatus (dose 500 ppm).

On to `Cc1ccc2c(c1)CCC2CN(C(=O)c1cn(C)nc1C(F)F)C1CC1` (stereo not shown) [CMP3, N-cyclopropyl-3-(difluoromethyl)-1-methyl-N-[(5-methyl-2,3-dihydro-1H-inden-1-yl)methyl]-1H-pyrazole-4-carboxamide, reference compound], for which the protection entry with Uromyces appendiculatus is recorded as “high (at least 80%) to no protection”. Further, the figures for the Efficacy in the data set on Uromyces appendiculatus (dose 100 ppm) and in the data set on Uromyces appendiculatus (dose 500 ppm) were 0% and 34%, respectively.

As to `Cn1cc(C(=O)N(CC2CCc3c(F)cccc32)C2CC2)c(C(F)F)n1` (stereo not shown) [CMP4, N-cyclopropyl-3-(difluoromethyl)-N-[(4-fluoro-2,3-dihydro-1H-inden-1-yl)methyl]-1-methyl-1H-pyrazole-4-carboxamide, reference compound], the protection entry with Uromyces appendiculatus is on record as “high (at least 80%) to no protection”. In addition, the Efficacy came to 0% in the data set with Uromyces appendiculatus (dose 100 ppm) and 6% in the data set with Uromyces appendiculatus (dose 500 ppm).

Take `Cn1cc(C(=O)N(CC2CC(C)(C)c3ccccc32)C2CC2)c(C(F)F)n1` (stereo not shown) [CMP5, N-cyclopropyl-3-(difluoromethyl)-N-[(3,3-dimethyl-2,3-dihydro-1H-inden-1-yl)methyl]-1-methyl-1H-pyrazole-4-carboxamide, reference compound]: in the data set on Uromyces appendiculatus, the protection result is given as “high (at least 80%) to no protection”. In the data set with Uromyces appendiculatus (dose 100 ppm), the Efficacy came to 31%.

For `Cn1cc(C(=O)N(CC2CCc3cc(Cl)ccc32)C2CC2)c(C(F)F)n1` (stereo not shown) [CMP6, N-[(5-chloro-2,3-dihydro-1H-inden-1-yl)methyl]-N-cyclopropyl-3-(difluoromethyl)-1-methyl-1H-pyrazole-4-carboxamide, reference compound], the protection entry in the data set with Uromyces appendiculatus is reported as “high (at least 80%) to no protection”. The Efficacy with Uromyces appendiculatus (dose 100 ppm) turned out to be 0%; in the data set on Uromyces appendiculatus (dose 500 ppm) it was 19%.

In the case of `Cn1cc(C(=O)N(CC2CCc3cccc(Cl)c32)C2CC2)c(C(F)F)n1` (stereo not shown) [CMP7, N-[(7-chloro-2,3-dihydro-1H-inden-1-yl)methyl]-N-cyclopropyl-3-(difluoromethyl)-1-methyl-1H-pyrazole-4-carboxamide, reference compound], the protection result in the data set on Uromyces appendiculatus is recorded as “high (at least 80%) to no protection”. The Efficacy with Uromyces appendiculatus (dose 100 ppm) and in the data set with Uromyces appendiculatus (dose 500 ppm) was 0% in each case.

As usually defined, the logP is a log measure of how a compound divides between an organic and an aqueous phase. In turn, `Cn1nc(C(F)F)c(C(=O)N(CC2CCc3cccc(Cl)c32)C2CC2)c1Cl` (stereo not shown) [I.15] registered an Efficacy in the data set on Pyrenophora teres of 71%. Moreover, the logP in data set [1] (setting [2]) came out at 3.96.

For `Cn1nc(C(F)F)c(C(=O)N(CC2CCc3cccc(Br)c32)C2CC2)c1Cl` (stereo not shown) [I.22], the logP in data set [1] (setting [2]) is 4.08.

In the data set with Pyrenophora teres, `Cn1nc(C(F)F)c(C(=O)N(CC2CCCc3cccc(Cl)c32)C2CC2)c1Cl` (stereo not shown) [I.29] gave an Efficacy of 88%. Also, the logP in data set [1] (setting [2]) is 4.26.

In turn, `Cn1nc(C(F)F)c(C(=O)N(CC2CCOc3ccccc32)C2CC2)c1Cl` (stereo not shown) [I.32] showed an Efficacy with Pyrenophora teres of 88%. Further, the logP in data set [1] (setting [2]) worked out at 3.17.

In turn, `Cc1cc(C)c2c(c1)C(CN(C(=O)c1c(C(F)F)nn(C)c1F)C1CC1)CCC2` (stereo not shown) [I.37, N-cyclopropyl-3-(difluoromethyl)-N-[(5,7-dimethyl-1,2,3,4-tetrahydronaphthalen-1-yl)methyl]-5-fluoro-1-methyl-1H-pyrazole-4-carboxamide] had a chromatographic logP in data set [1] of 4.44.

Take `COc1cccc2c1CCCC2CN(C(=O)c1c(C(F)F)nn(C)c1F)C1CC1C` (stereo not shown) [I.38]: the logP in data set [1] (setting [2]) stood at 4.06.

Regarding `Cn1nc(C(F)F)c(C(=O)N(CC2(C)CCCc3ccccc32)C2CC2)c1F` (stereo not shown) [I.39], the logP in data set [1] (setting [2]) is 3.96.

On to `c1ccc2c(c1)CCC2CNC1CC1` (stereo not shown) [IIf.1, N-(2,3-dihydro-1H-inden-1-ylmethyl)cyclopropanamine], for which, in data set [1], the chromatographic logP was 0.75.

`Cc1cccc2c1CCC2CNC1CC1` (stereo not shown) [IIf.2, N-[(4-methyl-2,3-dihydro-1H-inden-1-yl)methyl]cyclopropanamine] showed a chromatographic logP in data set [1] of 1.

`Cc1ccc2c(c1)CCC2CNC1CC1` (stereo not shown) [IIf.3, N-[(5-methyl-2,3-dihydro-1H-inden-1-yl)methyl]cyclopropanamine] gave a chromatographic logP in data set [1] of 0.95.

On to `Fc1cccc2c1CCC2CNC1CC1` (stereo not shown) [IIf.4, N-[(4-fluoro-2,3-dihydro-1H-inden-1-yl)methyl]cyclopropanamine], for which the chromatographic logP in data set [1] amounted to 0.82.

Compound `CC1(C)CC(CNC2CC2)c2ccccc21` (stereo not shown) [IIf.5, N-[(3,3-dimethyl-2,3-dihydro-1H-inden-1-yl)methyl]cyclopropanamine] returned a chromatographic logP in data set [1] of 1.12.

In data set [1], `Clc1ccc2c(c1)CCC2CNC1CC1` (stereo not shown) [IIf.6, N-[(5-chloro-2,3-dihydro-1H-inden-1-yl)methyl]cyclopropanamine] registered a chromatographic logP of 1.11.

The compound `Clc1cccc2c1C(CNC1CC1)CC2` (stereo not shown) [IIf.7, N-[(7-chloro-2,3-dihydro-1H-inden-1-yl)methyl]cyclopropanamine] registered a chromatographic logP in data set [1] of 0.95.

Compound `FC(F)(F)c1ccc2c(c1)C(CNC1CC1)CC2` (stereo not shown) [IIf.8, N-{[6-(trifluoromethyl)-2,3-dihydro-1H-inden-1-yl]methyl}cyclopropanamine] had a chromatographic logP in data set [1] of 1.25.

For `Clc1cc(Cl)c2c(c1)C(CNC1CC1)CC2` (stereo not shown) [IIf.9, N-[(4,6-dichloro-2,3-dihydro-1H-inden-1-yl)methyl]cyclopropanamine], in data set [1], the chromatographic logP was 1.38.

For the compound `Brc1cccc2c1C(CNC1CC1)CC2` (stereo not shown) [IIf.10, N-[(7-bromo-2,3-dihydro-1H-inden-1-yl)methyl]cyclopropanamine], in data set [1], the chromatographic logP is 1.08.

In turn, `CC1(CNC2CC2)CCCc2ccccc21` (stereo not shown) [IIf.11, N-[(1-methyl-1,2,3,4-tetrahydronaphthalen-1-yl)methyl]cyclopropanamine] yielded a chromatographic logP in data set [1] of 1.1.

`CC1CCC(CNC2CC2)c2ccccc21` (stereo not shown) [IIf.12, N-[(4-methyl-1,2,3,4-tetrahydronaphthalen-1-yl)methyl]cyclopropanamine]: the chromatographic logP in data set [1] came out at 1.22.

Consider `Cc1cc(C)c2c(c1)C(CNC1CC1)CCC2` (stereo not shown) [IIf.13, N-[(5,7-dimethyl-1,2,3,4-tetrahydronaphthalen-1-yl)methyl]cyclopropanamine], for which, in data set [1], the chromatographic logP came out at 1.75.

In data set [1], `COc1cccc2c1CCCC2CNC1CC1` (stereo not shown) [IIf.14, N-[(5-methoxy-1,2,3,4-tetrahydronaphthalen-1-yl)methyl]cyclopropanamine] showed a chromatographic logP of 1.28.

`Clc1cccc2c1C(CNC1CC1)CCC2` (stereo not shown) [IIf.15, N-[(8-chloro-1,2,3,4-tetrahydronaphthalen-1-yl)methyl]cyclopropanamine] displayed a chromatographic logP in data set [1] of 1.57.

In turn, `c1ccc2c(c1)CCCCC2CNC1CC1` (stereo not shown) [IIf.16, N-(6,7,8,9-tetrahydro-5H-benzo[7]annulen-5-ylmethyl)cyclopropanamine] displayed a chromatographic logP in data set [1] of 1.17.

As for `c1ccc2c(c1)CSCC2CNC1CC1` (stereo not shown) [IIf.17, N-(3,4-dihydro-1H-isothiochromen-4-ylmethyl)cyclopropanamine], the chromatographic logP in data set [1] (setting [3]) was 0.86.

In the case of `Fc1ccc2c(c1)C(CNC1CC1)CCS2` (stereo not shown) [IIf.18, N-[(6-fluoro-3,4-dihydro-2H-thiochromen-4-yl)methyl]cyclopropanamine], the chromatographic logP in data set [1] (setting [3]) was 1.05.

Consider `Clc1ccc2c(c1)C(CNC1CC1)CCS2` (stereo not shown) [IIf.19, N-[(6-chloro-3,4-dihydro-2H-thiochromen-4-yl)methyl]cyclopropanamine], for which, in data set [1] (setting [3]), the chromatographic logP worked out at 1.26.
